Measured values taken from patent publication US8287934B2, “Use of diacetyl dimer as an aromatic and/or flavouring substance” (Symrise AG, priority 2006, dated 2012).

Experiments:
[1] = Tasting in sweet/salty solution (flavour profile by testers); format: in vivo
Description: The actions found were evaluated with a scale of from 1 (action scarcely perceptible) to 9 (action highly perceptible).
The 5-acetyl-2,5-dimethyl-2-hydroxy-tetrahydrofuran-3-one from Example 1 (2 ppm diacetyl dimer of formula (I) in aqueous 5 wt. % sucrose or 0.5% sodium chloride solution) was investigated for its flavouring action by 9 testers.
The 2,5-diacetyl-3a,5,6,6a-tetrahydro-6a-hydroxy-2,3a,5-trimethylfuro[2,3-d]-1,3-dioxole from Example 1a (1 ppm diacetyl trimer of formula (II) in aqueous 5 wt. % sucrose or 0.5% sodium chloride solution) was investigated for its flavouring action by 9 testers.
The aromatic and/or flavouring composition containing diacetyl dimer of formula (I) and diacetyl trimer of formula (II) from example (1b) (1 ppm of the composition in aqueous 5 wt. % sucrose or 0.5% sodium chloride solution) was investigated for its flavouring action by 7 testers.
For comparison, a flavour profile of diacetyl (1 ppm in aq. 5% sucrose or 0.5% sodium chloride solution) was produced under otherwise identical conditions: fatty (oily) (5), cream (5), butter (7), milk (4), condensed milk (4), fruity (2), cheesy (2), sweet (4), vanillin (2), intensity (7), impact (7), fullness (7), adhesive (5), soft (6).

[2] = Stability on heating and in formulations; format: physicochemical; conditions: for decomposition when heated: heated at 60° C. to 100° C. for 10 minutes
[3] = 2 ppm in aqueous 5 wt. % sucrose or 0.5% sodium chloride solution, scale 1 to 9
[4] = 1 ppm in aqueous 5 wt. % sucrose or 0.5% sodium chloride solution, scale 1 (scarcely perceptible) to 9 (highly perceptible)
[5] = 1 ppm in aqueous 5 wt. % sucrose or 0.5% sodium chloride solution, scale 1 to 9
[6] = 1 ppm in aq. 5% sucrose or 0.5% sodium chloride solution, scale 1 to 9

decomposition when heated [2] | SMILES | flavour profile: fatty (oily) [1, 4] | flavour profile: adhesive [1, 5] | flavour profile: butter [1, 5] | flavour profile: cream [1, 5] | flavour profile: fullness [1, 5] | flavour profile: impact [1, 5] | flavour profile: intensity [1, 5] | flavour profile: soft [1, 5] | flavour profile: sweet [1, 5] | flavour profile: vanillin [1, 5] | also measured
does not decompose | CC(=O)C1(C)CC(=O)C(C)(O)O1 (racemic) [diacetyl dimer of formula (I), 5-acetyl-2,5-dimethyl-2-hydroxy-tetrahydrofuran-3-one] | – | – | – | – | – | – | – | – | – | – | flavour profile: cream ([1]; 2 ppm in aqueous 5 wt. % sucrose or 0.5% sodium chloride solution, scale 1 (scarcely perceptible) to 9 (highly perceptible)): 5; flavour profile: butter [1, 3]: 5; flavour profile: caramel [1, 3]: 3; flavour profile: fullness [1, 3]: 6; flavour profile: intensity [1, 3]: 5; flavour profile: soft [1, 3]: 6; flavour profile: sweet [1, 3]: 5; flavour profile: toffee [1, 3]: 4; flavour profile: vanillin [1, 3]: 3; stability in formulations compared with diacetyl ([2]; nutrition, oral hygiene, luxury product or oral pharmaceutical formulations, in particular acidic or basic pH-value): significantly more stable than diacetyl
does not decompose | CC(=O)C1(C)CC2(O)OC(C)(C(C)=O)OC2(C)O1 (racemic) [diacetyl trimer of formula (II), 2,5-diacetyl-3a,5,6,6a-tetrahydro-6a-hydroxy-2,3a,5-trimethylfuro[2,3-d]-1,3-dioxole] | 7 | 8 | 8 | 6 | 7 | 7 | 6 | 6 | 6 | 3 | flavour profile: caramel [1, 5]: 4; flavour profile: fresh cheese/quark [1, 5]: 4; flavour profile: toffee [1, 5]: 6
– | CC(=O)C(C)=O [diacetyl, 2,3-butanedione] | 5 | 5 | 7 | 5 | 7 | 7 | 7 | 6 | 4 | 2 | flavour profile: cheesy [1, 6]: 2; flavour profile: condensed milk [1, 6]: 4; flavour profile: fruity [1, 6]: 2; flavour profile: milk [1, 6]: 4
